Reference: paper PMC8591627 (ACS infectious diseases, 2021)
“And” between values parts separate entries of the source, which are not always exact repeats. Identical values can stand only once.

Experiments:
[1] = tested on: JSF-3151–resistant strains; test: MIC versus JSF-3151-resistant strains compared to the parental strain; type: cell-based, Staphylococcus aureus
MRSA ATCC 43300 = test: MIC, drug susceptibility assay; type: cell-based, Staphylococcus aureus; conditions: 18 h; for MRSA ATCC 43300 MIC: 37 °C, visual inspection
MSSA ATCC 25923 = test: MIC, drug susceptibility assay; type: cell-based, Staphylococcus aureus; conditions: 18 h, 37 °C, visual inspection
Vero cells = type: cell-based; conditions: 72 h; for CC50: read-out: Vero cell CC50
S. aureus = conditions: 8x MIC; ref [13], [35]–[36]; cited from earlier work
MRSA COL strain = test: Mouse peritonitis-sepsis model; type: in vivo, Staphylococcus aureus; conditions: single dose 100 mg/kg subcutaneous

CC1(C)S[C@@H]2[C@H](NC(=O)[C@H](N)c3ccccc3)C(=O)N2[C@H]1C(=O)O [Ampicillin]
MIC versus JSF-3151–resistant strains compared to parental strain [1]: same MIC

C[C@H]1c2cccc(O)c2C(=O)C2=C(O)[C@]3(O)C(=O)C(C(N)=O)=C(O)[C@@H](N(C)C)[C@@H]3[C@@H](O)[C@@H]21 [Doxycycline]
MIC versus JSF-3151–resistant strains compared to parental strain [1]: same MIC

CC(=O)N1CCN(c2cc3c(cc2F)c(=O)c(C(=O)N2CCCc4ccccc42)cn3C2CC2)CC1 [JSF-3145]
MRSA ATCC 43300 MIC (MRSA ATCC 43300; listed as Z27692293 (3145)): 12 μg/mL and 25 μM | MSSA ATCC 25923 MIC (MSSA ATCC 25923; listed as Z27692293 (3145)): 12 μg/mL and 25 μM | Vero cell CC50 (Vero cells): > 50 mg/L | CC50 (Vero cells): > 100 µM

O=C(Nc1cccc(N2CCOC2=O)c1)c1ccc([N+](=O)[O-])o1 [JSF-3153]
MRSA ATCC 43300 MIC (MRSA ATCC 43300; listed as Z364195972 (3153)): 3.1 μg/mL and 10 μM | MSSA ATCC 25923 MIC (MSSA ATCC 25923; listed as Z364195972 (3153)): 6.2 μg/mL and 20 μM | Vero cell CC50 (Vero cells): 1.6 mg/L | CC50 (Vero cells): 5 µM

CN(C)c1nnc(-c2ccc(NC(=O)c3ccc([N+](=O)[O-])o3)cc2)o1 [JSF-3157]
MRSA ATCC 43300 MIC (MRSA ATCC 43300; listed as Z1542057255 (3157)): 6.2 μg/mL and 18 μM | MSSA ATCC 25923 MIC (MSSA ATCC 25923; listed as Z1542057255 (3157)): 6.2 μg/mL and 18 μM | Vero cell CC50 (Vero cells): 0.78 mg/L | CC50 (Vero cells): 2 µM

Nc1ccc(C(=O)Nc2cc(Cl)cc3cccnc23)s1 [JSF-3640, 5-amino-N-(6-chloroquinolin-8-yl)thiophene-2-carboxamide]
MIC (MRSA ATCC 43300; Staphylococcus aureus, ATCC43300|MRSA, read-out: MRSA ATCC 43300 MIC): > 50 mg/L

CO[C@H]1/C=C/O[C@@]2(C)Oc3c(C)c(O)c4c(O)c(c(/C=N/N5CCN(C)CC5)c(O)c4c3C2=O)NC(=O)/C(C)=C\C=C\[C@H](C)[C@H](O)[C@@H](C)[C@@H](O)[C@@H](C)[C@H](OC(C)=O)[C@@H]1C [Rifampicin]
MIC versus JSF-3151–resistant strains compared to parental strain [1]: same MIC

O=C(O)c1cn(C2CC2)c2cc(N3CCNCC3)c(F)cc2c1=O [ciprofloxacin]
resistance frequency (S. aureus): 1 x 10^−9 to 1 x 10^−6

CC[C@H]1OC(=O)[C@H](C)[C@@H](O[C@H]2C[C@@](C)(OC)[C@@H](O)[C@H](C)O2)[C@H](C)[C@@H](O[C@@H]2O[C@H](C)C[C@H](N(C)C)[C@H]2O)[C@](C)(O)C[C@@H](C)C(=O)[C@H](C)[C@@H](O)[C@]1(C)O [erythromycin]
MIC versus JSF-3151–resistant strains compared to parental strain [1]: same MIC

CC(=O)NC[C@H]1CN(c2ccc(N3CCOCC3)c(F)c2)C(=O)O1 [linezolid]
resistance frequency (S. aureus): 1 x 10^−9 to 1 x 10^−6

CN[C@H](CC(C)C)C(=O)N[C@H]1C(=O)N[C@@H](CC(N)=O)C(=O)N[C@H]2C(=O)N[C@H]3C(=O)N[C@H](C(=O)N[C@H](C(=O)O)c4cc(O)cc(O)c4-c4cc3ccc4O)[C@H](O)c3ccc(c(Cl)c3)Oc3cc2cc(c3O[C@@H]2O[C@H](CO)[C@@H](O)[C@H](O)[C@H]2O[C@H]2C[C@](C)(N)[C@H](O)[C@H](C)O2)Oc2ccc(cc2Cl)[C@H]1O [vancomycin]
MIC versus JSF-3151–resistant strains compared to parental strain [1]: same MIC | resistance frequency (S. aureus): 1 x 10^−9 to 1 x 10^−6 | mice surviving 3 d post-administration (MRSA COL strain): 12/12
